According to patent US20150252048A1, “SUBSTITUTED N-(3-PYRIMIDIN-4-YL)PHENYL)ACRYLAMIDE ANALOGS AS TYROSINE RECEPTOR KINASE BTK INHIBITORS” (UNIVERSITY OF UTAH RESEARCH FOUNDATION, priority 2012, published 2015):
Read-outs that look alike come from different tables or passages of the source.

Legend:
Plasma stability assay = format: in vitro ADME; parameters: half-life: dose or concentration left out as unconfirmed
Protocol: The representative compound, compound 3, was also assessed in a plasma stability assay. Briefly, the compound was present at a concentration […] in plasma from three mammalian species (human, rat, and mouse). The concentration of intact drug (i.e. unmodified drug) at the indicated time points was determined using a LC-MS/MS assay. The data are consistent with good drug stability under the conditions tested.

Pharmacokinetics in mice = format: in vivo; conditions: mouse, plasma
Protocol: The pharmacokinetic behavior of a representative disclosed compound, compound 3 (N-(3-(6-((3-morpholinophenyl)amino)-1H-pyrazolo[3,4-d]pyrimidin-4-yl)phenyl)acrylamide), which corresponds to compound 3 in Table I, was evaluated in mice. As used herein, “test compound” refers to compound 3. The study was carried out using three animals per dosing group. Animals were dosed as follows: a) Group 1 were administered 5 mg/kg of test compound by i.v. administration; b) Group 2 were dosed at 10 mg/kg by oral gavage using the base form of the test compound; and c) Group 3 were dosed at 10 mg/kg by oral gavage using a HCl salt of the test compound. Plasma concentration of the test compound was determined on samples take at the following time points: 0.08, 0.25, 0.50, 1, 2, 4, 8, and 24 hrs. Individual values were within 25% of the mean.

[1] = po, 10 mg/kg, p.o. (HCl salt), 10 mg/kg oral gavage
[2] = po, 10 mg/kg, p.o. (base form), 10 mg/kg oral gavage

In the case of `C=CC(=O)Nc1cccc(-c2nc(Nc3cccc(N4CCOCC4)c3)nc3[nH]ncc23)c1` [Compound 3, N-(3-(6-((3-morpholinophenyl)amino)-1H-pyrazolo[3,4-d]pyrimidin-4-yl)phenyl)acrylamide], the half-life (Plasma stability assay; human plasma) is reported as greater than 120 min, the “Compound Remaining” value (Plasma stability assay; human plasma, 0 min) is reported as 100 % of initial amount and the “Compound Remaining” value (Plasma stability assay; human plasma, 15 min) is reported as 90.1 % of initial amount. The “Compound Remaining” value (Plasma stability assay; human plasma, 30 min) was 99.6 % of initial amount, the “Compound Remaining” value (Plasma stability assay; human plasma, 60 min) was 91.3 % of initial amount and the “Compound Remaining” value (Plasma stability assay; human plasma, 120 min) was 78.6 % of initial amount. The half-life (Plasma stability assay; mouse plasma) was greater than 120 min, the “Compound Remaining” value (Plasma stability assay; mouse plasma, 0 min) was 100 % of initial amount and the “Compound Remaining” value (Plasma stability assay; mouse plasma, 15 min) was 100 % of initial amount. The “Compound Remaining” value (Plasma stability assay; mouse plasma, 30 min) was 101 % of initial amount, the “Compound Remaining” value (Plasma stability assay; mouse plasma, 60 min) was 85.8 % of initial amount and the “Compound Remaining” value (Plasma stability assay; mouse plasma, 120 min) was 91.7 % of initial amount. The half-life (Plasma stability assay; rat plasma) was greater than 120 min, the “Compound Remaining” value (Plasma stability assay; rat plasma, 0 min) was 100 % of initial amount and the “Compound Remaining” value (Plasma stability assay; rat plasma, 15 min) was 95.2 % of initial amount. For the same compound, the “Compound Remaining” value (Plasma stability assay; rat plasma, 30 min) was 92.9 % of initial amount, the “Compound Remaining” value (Plasma stability assay; rat plasma, 60 min) was 80.2 % of initial amount and the “Compound Remaining” value (Plasma stability assay; rat plasma, 120 min) was 55.9 % of initial amount. The Cmax (Pharmacokinetics in mice; iv, 5 mg/kg) was 3520 ng/mL, the Tmax (Pharmacokinetics in mice; iv, 5 mg/kg) was 4.8 min and the clearance (Pharmacokinetics in mice; iv, 5 mg/kg) was 67 mL/min/kg. For the same compound, the half-life (Pharmacokinetics in mice; iv, 5 mg/kg) was 90 min, the AUC(0-t) (Pharmacokinetics in mice; iv, 5 mg/kg, i.v., 5 mg/kg, read-out: AUC0-4) was 1180 ng·h/mL and the AUC(0-t) (Pharmacokinetics in mice; iv, 5 mg/kg, i.v., 5 mg/kg, read-out: AUC0-t) was 1230 ng·h/mL. The Vd (Pharmacokinetics in mice; iv, 5 mg/kg, read-out: Vss) was 2.6 L/kg, the Cmax (Pharmacokinetics in mice; [1]) was 465 ng/mL and the Tmax (Pharmacokinetics in mice; [1]) was 15 min. The bioavailability (Pharmacokinetics in mice; [1]) was 3%, the AUC(0-t) (Pharmacokinetics in mice; po, 10 mg/kg, p.o. (HCl salt), 10 mg/kg oral gavage, read-out: AUC0-4) was 357 ng·h/mL and the Cmax (Pharmacokinetics in mice; [2]) was 299 ng/mL. It also gave a Tmax (Pharmacokinetics in mice; [2]) of 30 min, a bioavailability (Pharmacokinetics in mice; [2]) of 2.3% and an AUC(0-t) (Pharmacokinetics in mice; po, 10 mg/kg, p.o. (base form), 10 mg/kg oral gavage, read-out: AUC0-4) of 270 ng·h/mL.
